Measured values from patent publication US11235020B2, “Methods and compositions for inhibiting glyoxalase 1 (GLO1)” (priority 2013, dated 2022).

Tests used:
neuronal cell death = conditions: literature (Di Loreto 2008; Di Loreto 2004; Li 2010); cited from earlier work
mice = assay: Observation of sedation or gross deficits in treated mice; conditions: MG 300 mg/kg, WT B6 mice, data not shown
[1] = tested on: picrotoxin-induced seizures; assay: Picrotoxin-induced seizures, behavioral scoring; type: in vivo, mouse; conditions: MG 50 and 200 mg/kg pre-treatment, picrotoxin 5 mg/kg
Experimental: (§1) Drug administration: All experiments with MG utilized crude MG obtained from Sigma-Aldrich. For pre-treatment, MG (50 or 200 mg/kg) or vehicle (0.9% saline) was administered by i.p. injection 10 minutes before the seizure-inducing agent. For treatment after seizure onset, MG (200 mg/kg) or vehicle (0.9% saline) was administered by i.p. injection ten minutes after seizure onset. For GLO1 inhibition, BrBzGCp2 (50 mg/kg) or vehicle (8% DMSO and 18% Tween-80) was administered by i.p. injection two hours before seizure induction.
(§2) Seizure induction: For picrotoxin-induced seizures, 5 mg/kg of picrotoxin in 0.9% saline was administered by i.p. injection. Seizures were scored for one hour after picrotoxin administration. For pilocarpine-induced seizures, mice were pre-treated with atropine (5 mg/kg in 0.9% saline) by i.p. injection in order to reduce the peripheral effects of pilocarpine. Thirty minutes after atropine administration, pilocarpine was administered by i.p. injection. B6 mice were treated with 250 mg/kg pilocarpine in 0.9% saline, and FVB mice (WT and Tg) were treated with 300 mg/kg pilocarpine in 0.9% saline. Seizures were scored for 90 minutes after pilocarpine administration.
Seizure scoring: Picrotoxin-induced seizures were scored as the presence of generalized convulsions as well as the latency to and duration of generalized convulsions.

glutamate receptors = assay: Glutamatergic currents in CGN; type: cell-based, rat; conditions: 10 μM MG
Description: Ligand-gated currents: Ligand-gated currents were studied in voltage-clamp mode by application of reagents to cells held at −50 mV. GABAergic and glycinergic currents were activated by application of GABA and glycine and antagonized by application of SR and strychnine, respectively (Kaneda 1995). Glutamatergic currents were activated by 1-glutamate and antagonized by CNQX and AP-5 (Wyllie 1994).

CD-1 mice = assay: Accelerating rotarod; type: in vivo, mouse; conditions: MG 300 mg/kg
Experimental: On day 1, mice were trained on the rotarod for five consecutive trials. […] The latency to fall and the rotarod speed at the time of the fall were recorded.

[2] = tested on: pilocarpine-induced seizures; assay: Pilocarpine-induced seizures; type: in vivo, mouse
Experimental: as §1, §2
Pilocarpine-induced seizures were scored as previously reported (Winawer 2011):
Stage 1: Immobility/Lying Low
Stage 2: Partial (limbic) seizures. Non-continuous twitching/tremor/shaking of tail/head/body/limbs, forelimb and/or tail extension, rigid posture, repetitive movements, head bobbing
Stage 3: Partial status epilepticus. Continuous tremor/clonic seizures of body and tail while retaining posture
Stage 4: Generalized seizures. Rearing/hyperexcitability/running/falling, tonic extension/clonic seizures with loss of posture
Stage 5: Generalized status epilepticus (continuous stage 4 seizures) resulting in death

[3] = tested on: motor coordination in mice; assay: Balance beam test; type: in vivo, mouse; conditions: 300 mg/kg i.p., B6 mice
Experimental: The balance beam was 97 cm×9.5 mm and elevated to 46 cm. Mice were tested on the balance beam, and missteps were counted.
Balance beam: The balance beam test was performed as described above. Ten minutes post-injection, mice were tested on the balance beam, and missteps were recorded.

[4] = tested on: anxiety-like behavior in B6 mice; assay: Light-dark (LD) box test; type: in vivo, mouse; conditions: MG 50 mg/kg i.p.
Experimental: (§3) LD box test: Mice were placed in the light compartment, and activity was monitored for 4 minutes. The light compartment was illuminated to approximately 1,000 lux, and the dark compartment was illuminated to approximately 5 lux. Behavior was recorded and automatically scored by the Noldus Ethovision System.
as §3, with “Ten minutes post-injection, mice” for “Mice”, “three” for “4”

[5] = tested on: depression-like behavior in mice; conditions: intracerebroventricular MG for six days (Hambsch 2010); cited from earlier work
potassium currents = assay: Potassium currents in CGN; type: cell-based, rat; conditions: 10 μM MG
Description: (§4) Potassium currents: Voltage-gated potassium channel currents were evoked using a previously reported protocol with modifications (Plant 2006). The whole voltage-gated potassium current, IK+, and the delayed rectifier current, IDR were isolated with two voltage protocols. First, IK+ was evoked by 250 ms test pulses to between −80 and 90 mV from −80 mV following a 250 ms pre-pulse to −140 mV. Then, the protocol was repeated using a −50 mV pre-pulse to inactivate IK+ and isolate IDR. The inactivating component of the current, IKA, was isolated by subtracting IDR from IK+ recorded in the same cells. The standing outward potassium leak current, IKso, and the inwardly rectifying potassium current, IKIR, were studied as previously reported with modifications (Plant 2002). Cells were held at −20 mV, and the membrane potential was ramped to −120 mV over a period of 100 ms before returning to −20 mV. Ramp hyperpolarizations were repeated every 20 seconds.

sodium currents = assay: Voltage-gated sodium currents in CGN; type: cell-based, rat; conditions: 10 μM MG
Experimental: Sodium currents: Sodium currents were studied as previously described (Plant 2006) using a bath solution containing 130 mM NaCl, 5 mM CsCl, 2 mM CaCl2, 1.2 mM MgCl2, 5 mM glucose, and 10 mM HEPES adjusted to pH 7.4 with NaOH. 500 nM tetrodotoxin (Sigma) was included in the bath […]. The electrode solution contained 60 mM CsCl, 80 mM CsF, 10 mM EGTA, 1 mM CaCl2, 1 mM MgCl2, 5 mM Na2ATP, and 10 mM HEPES adjusted to pH 7.4 with CsOH. All voltage-gated currents were studied following a P/5 leak subtraction protocol, and voltage-clamp errors were minimized with 80% series resistance compensation.

anxiety-like behavior = conditions: intracerebroventricular MG for six days (Hambsch 2010); cited from earlier work
GABAB receptors = molecular target: T1, GABAB receptors (Rattus norvegicus, UniProt Q9Z0U4); assay: GABAB receptor activation (IKIR) in CGN; type: cell-based; conditions: 10 μM MG in the presence of SR
T1 construct: endogenous in cells; host or cells: primary rat cerebellar granule neurons
T1 sequence (Q9Z0U4 17-960 limits assumed): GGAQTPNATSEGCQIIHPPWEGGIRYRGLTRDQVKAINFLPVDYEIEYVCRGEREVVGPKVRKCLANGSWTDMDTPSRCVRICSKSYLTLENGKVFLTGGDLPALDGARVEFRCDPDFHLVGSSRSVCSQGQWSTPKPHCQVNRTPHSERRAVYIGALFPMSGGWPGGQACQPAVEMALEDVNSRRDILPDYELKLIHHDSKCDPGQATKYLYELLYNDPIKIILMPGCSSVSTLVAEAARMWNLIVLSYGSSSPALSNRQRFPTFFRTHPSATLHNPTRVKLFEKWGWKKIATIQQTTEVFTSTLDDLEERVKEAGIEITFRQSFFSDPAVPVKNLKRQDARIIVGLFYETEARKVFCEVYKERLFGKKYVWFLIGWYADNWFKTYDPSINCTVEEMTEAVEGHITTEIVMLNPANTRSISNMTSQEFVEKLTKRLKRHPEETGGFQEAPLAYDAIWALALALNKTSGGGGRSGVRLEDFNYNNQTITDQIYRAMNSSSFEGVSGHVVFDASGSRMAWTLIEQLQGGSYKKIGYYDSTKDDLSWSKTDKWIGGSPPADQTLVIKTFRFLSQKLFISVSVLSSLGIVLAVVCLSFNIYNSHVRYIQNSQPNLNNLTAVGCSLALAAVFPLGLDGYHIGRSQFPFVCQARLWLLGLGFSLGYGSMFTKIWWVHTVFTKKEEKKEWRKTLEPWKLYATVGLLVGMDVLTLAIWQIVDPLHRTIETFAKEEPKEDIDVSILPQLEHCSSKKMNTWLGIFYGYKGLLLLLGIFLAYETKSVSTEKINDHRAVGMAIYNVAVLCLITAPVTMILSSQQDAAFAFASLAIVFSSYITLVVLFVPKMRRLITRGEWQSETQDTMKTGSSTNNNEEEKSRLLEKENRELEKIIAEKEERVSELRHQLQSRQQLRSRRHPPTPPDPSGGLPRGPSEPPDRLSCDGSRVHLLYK
T1 sequence (O88871 41-940 partner): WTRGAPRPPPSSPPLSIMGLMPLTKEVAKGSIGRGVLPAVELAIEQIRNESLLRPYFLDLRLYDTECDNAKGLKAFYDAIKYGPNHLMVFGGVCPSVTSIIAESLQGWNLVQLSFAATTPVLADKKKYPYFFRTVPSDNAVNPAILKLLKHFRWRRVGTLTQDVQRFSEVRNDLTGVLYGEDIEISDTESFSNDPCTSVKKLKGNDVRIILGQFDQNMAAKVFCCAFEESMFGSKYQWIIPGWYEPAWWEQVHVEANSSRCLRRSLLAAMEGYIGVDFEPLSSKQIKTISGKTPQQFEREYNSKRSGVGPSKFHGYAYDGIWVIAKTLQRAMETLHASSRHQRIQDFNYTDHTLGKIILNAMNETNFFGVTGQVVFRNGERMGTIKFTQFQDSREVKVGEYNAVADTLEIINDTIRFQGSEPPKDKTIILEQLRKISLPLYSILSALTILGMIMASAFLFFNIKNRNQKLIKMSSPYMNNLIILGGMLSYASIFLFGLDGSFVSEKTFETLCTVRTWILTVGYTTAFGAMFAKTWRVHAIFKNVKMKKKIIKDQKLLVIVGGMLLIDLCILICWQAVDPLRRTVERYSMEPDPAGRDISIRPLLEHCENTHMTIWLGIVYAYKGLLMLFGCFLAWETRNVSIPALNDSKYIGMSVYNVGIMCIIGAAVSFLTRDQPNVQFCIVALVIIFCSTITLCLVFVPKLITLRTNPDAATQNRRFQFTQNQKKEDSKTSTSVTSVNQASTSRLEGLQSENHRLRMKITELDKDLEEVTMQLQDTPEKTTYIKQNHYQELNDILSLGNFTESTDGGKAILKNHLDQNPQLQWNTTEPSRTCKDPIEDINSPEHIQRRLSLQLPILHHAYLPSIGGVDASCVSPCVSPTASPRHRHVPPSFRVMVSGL
Description: as §4

[6] = MG 50 and 200 mg/kg pre-treatment, pilocarpine 250 mg/kg, B6 mice

In the case of CC(=O)C=O [MG, methylglyoxal], the “MG concentrations that induce neuronal cell death in vitro” value (neuronal cell death) is listed as 100-1,000 μM, the sedation (mice) is listed as “caused sedation” and the “duration of generalized convulsions” value [1] is listed as “reduced seizure duration”. For the same compound, the “percentage of mice undergoing generalized convulsions” value [1] was “reduced the percentage of mice undergoing generalized convulsions”, the “latency to first generalized convulsion (seizure onset)” value ([1]; dose-dependent) was “delayed seizure onset” and the “activation of glutamate receptors” value (glutamate receptors) was “did not activate”. For the same compound, the “speed at fall from accelerating rotarod (ataxia)” value (CD-1 mice) was “fell from an accelerating rotarod at slower speeds than vehicle-treated mice”, the “seizure duration, treatment of ongoing seizures” value ([2]; MG 200 mg/kg given 10 min after pilocarpine 250 mg/kg) was “reduced seizure duration in mice undergoing pilocarpine-induced seizures” and the “highest seizure stage reached” value [2, 6] was “reduced seizure stage”. For the same compound, the “latency to reach stage 3 (seizure onset)” value [2, 6] was “dose-dependently delayed seizure onset”, the “time spent in stage 3 (seizure duration)” value [2, 6] was “reduced seizure duration” and the “footslips on the balance beam (ataxia)” value [3] was “made more footslips than vehicle-treated mice”. The “number of transitions between compartments” value [4] was “without affecting the number of transitions”, the “time spent in the light compartment” value ([4]; 10 min post-injection) was “increased time spent in the light compartment” and the “immobility in the TST” value [5] was “reduced immobility in the TST”. The “effect on potassium currents” value (potassium currents) was “did not affect”, the “effect on major sodium currents” value (sodium currents) was “did not affect the major sodium currents” and the “anxiety-like behavior in the EPM” value (anxiety-like behavior) was “reduced anxiety-like behavior in the EPM”. The “activation of GABAB receptors” value (GABAB receptors) was “did not activate GABAB receptors”.
